Patent US6737383B1, “Herbicidal oxadiazolidines” (priority 1999, dated 2004)

How the values were obtained:
blackgrass = assay: Test B pre/postemergence blackgrass; format: in vivo, Alopecurus myosuroides
In short: (§1)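 Herbicidal effect was estimated by eye on a ten-point control scale after plants spent twelve to sixteen days in a greenhouse following soil or foliar treatment. Foliar sprays targeted plants at one to four leaves; all doses were formulated in a non-phytotoxic solvent with surfactant.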

surinam grass = assay: Test B pre/postemergence surinam grass; format: in vivo, Brachiaria decumbens
In short: as §1

purple nutsedge = assay: Test B pre/postemergence purple nutsedge; format: in vivo, Cyperus rotundus
In short: as §1

soybean = assay: Test B pre/postemergence soybean; format: in vivo, Glycine max
In short: as §1

wheat = assay: Test B pre/postemergence wheat; format: in vivo, Triticum aestivum
In short: as §1

giant foxtail = assay: Test B pre/postemergence giant foxtail; format: in vivo, Setaria faberii
In short: as §1

corn = assay: Test B pre/postemergence corn; format: in vivo, Zea mays
In short: as §1

morningglory = assay: Test B pre/postemergence morningglory; format: in vivo, Ipomoea hederacea
In short: as §1

duck salad = assay: Test B flood test duck salad; format: in vivo, Heteranthera limosa
In short: (§2)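 Each value is a visual injury score relative to controls, with 10 meaning complete control and 0 no effect. Evaluation took place twelve to sixteen days after the 2-leaf-stage plants were treated and kept in the greenhouse.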

smallflower flatsedge = assay: Test B flood test smallflower flatsedge; format: in vivo, Cyperus difformis
In short: as §2

velvetleaf = assay: Test B pre/postemergence velvetleaf; format: in vivo, Abutilon theophrasti
In short: as §1

pigweed = assay: Test B pre/postemergence pigweed; format: in vivo, Amaranthus retroflexus
In short: as §1

bedstraw = assay: Test B pre/postemergence bedstraw; format: in vivo, Galium aparine
In short: as §1

rice = assay: Test B flood test rice; format: in vivo, Oryza sativa
In short: as §2

crabgrass = assay: Test B pre/postemergence crabgrass; format: in vivo, Digitaria sanguinalis
In short: as §1

wild oat = assay: Test B pre/postemergence wild oat; format: in vivo, Avena fatua
In short: as §1

[1] = Postemergence, Rate 62 g/ha, scale 0 to 10, 0 is no effect, 10 is complete control
[2] = Postemergence, Rate 250 g/ha, scale 0 to 10, 0 no effect, 10 complete control
[3] = Preemergence, Rate 62 g/ha, scale 0 to 10, 0 is no effect, 10 is complete control
[4] = Preemergence, Rate 125 g/ha, scale 0 to 10 (0 no effect, 10 complete control)
[5] = Preemergence, Rate 250 g/ha, scale of 0 to 10 where 0 is no effect and 10 is complete control
[6] = Preemergence, Rate 500 g/ha, scale 0 (no effect) to 10 (complete control)
[7] = Rate 125 g/ha, Postemergence, scale 0 to 10, 0 no effect, 10 complete control
[8] = Rate 500 g/ha, Postemergence, 0 to 10 scale (0 no effect, 10 complete control)
[9] = Rate 125 g/ha, Postemergence section (flood test species), scale 0 to 10, 0 no effect, 10 complete control
[10] = Rate 500 g/ha, Postemergence section of Table B, 0 to 10 scale (0 no effect, 10 complete control)
[11] = flood test, listed under Postemergence, Rate 250 g/ha, scale 0 to 10, 0 no effect, 10 complete control

SMILES: Cc1ccccc1-n1c(=O)on(C(=O)N(c2ccc([N+](=O)[O-])cc2)C(C)C)c1=O [Compound 44]
- Blackgrass plant response rating (blackgrass; [1]): 0
- Blackgrass plant response rating (blackgrass; [2]): 0
- Plant response rating, Blackgrass (blackgrass; [3]): 0
- Plant response rating, Blackgrass (blackgrass; [4]): 0
- Plant response rating, Blackgrass (blackgrass; [5]): 0
- Blackgrass plant response rating (blackgrass; [6]): 1
- Blackgrass plant response rating (blackgrass; [7]): 0
- Blackgrass plant response rating (blackgrass; [8]): 0
- B. signalgrass plant response rating (surinam grass; [1]): 0
- B. signalgrass plant response rating (surinam grass; [2]): 0
- Plant response rating, B. signalgrass (surinam grass; [3]): 0
- Plant response rating, B. signalgrass (surinam grass; [4]): 0
- Plant response rating, B. signalgrass (surinam grass; [5]): 0
- B. signalgrass plant response rating (surinam grass; [6]): 0
- B. signalgrass plant response rating (surinam grass; [7]): 0
- B. signalgrass plant response rating (surinam grass; [8]): 0
- Nutsedge plant response rating (purple nutsedge; [1]): 0
- Nutsedge plant response rating (purple nutsedge; [2]): 0
- Plant response rating, Nutsedge (purple nutsedge; [3]): 0
- Plant response rating, Nutsedge (purple nutsedge; [4]): 0
- Plant response rating, Nutsedge (purple nutsedge; [5]): 0
- Nutsedge plant response rating (purple nutsedge; [6]): 0
- Nutsedge plant response rating (purple nutsedge; [7]): 0
- Nutsedge plant response rating (purple nutsedge; [8]): 0
- Soybean plant response rating (soybean; [1]): 0
- Soybean plant response rating (soybean; [2]): 1
- Plant response rating, Soybean (soybean; [3]): 0
- Plant response rating, Soybean (soybean; [4]): 0
- Plant response rating, Soybean (soybean; [5]): 0
- Soybean plant response rating (soybean; [6]): 0
- Soybean plant response rating (soybean; [7]): 0
- Wheat plant response rating (wheat; [1]): 0
- Wheat plant response rating (wheat; [2]): 0
- Plant response rating, Wheat (wheat; [3]): 0
- Plant response rating, Wheat (wheat; [4]): 0
- Plant response rating, Wheat (wheat; [5]): 0
- Wheat plant response rating (wheat; [6]): 0
- Wheat plant response rating (wheat; [7]): 0
- Giant foxtail plant response rating (giant foxtail; [1]): 0
- Giant foxtail plant response rating (giant foxtail; [2]): 0
- Plant response rating, Giant foxtail (giant foxtail; [3]): 0
- Plant response rating, Giant foxtail (giant foxtail; [4]): 0
- Plant response rating, Giant foxtail (giant foxtail; [5]): 0
- Giant foxtail plant response rating (giant foxtail; [6]): 1
- Giant foxtail plant response rating (giant foxtail; [7]): 0
- Giant foxtail plant response rating (giant foxtail; [8]): 0
- Corn plant response rating (corn; [1]): 0
- Corn plant response rating (corn; [2]): 0
- Plant response rating, Corn (corn; [3]): 0
- Plant response rating, Corn (corn; [4]): 0
- Plant response rating, Corn (corn; [5]): 0
- Corn plant response rating (corn; [6]): 0
- Corn plant response rating (corn; [7]): 0
- Corn plant response rating (corn; [8]): 0
- Morningglory plant response rating (morningglory; [1]): 0
- Morningglory plant response rating (morningglory; [2]): 0
- Plant response rating, Morningglory (morningglory; [3]): 0
- Plant response rating, Morningglory (morningglory; [4]): 0
- Plant response rating, Morningglory (morningglory; [5]): 0
- Morningglory plant response rating (morningglory; [6]): 0
- Morningglory plant response rating (morningglory; [7]): 0
- Morningglory plant response rating (morningglory; [8]): 1
- Ducksalad plant response rating (duck salad; [1]): 0
- Ducksalad plant response rating (duck salad; [9]): 0
- Ducksalad plant response rating (duck salad; [10]): 0
- Ducksalad plant response rating (duck salad; [11]): 0
- S. Flatsedge plant response rating (smallflower flatsedge; [1]): 0
- S. Flatsedge plant response rating (smallflower flatsedge; [9]): 0
- S. Flatsedge plant response rating (smallflower flatsedge; [11]): 0
- Velvetleaf plant response rating (velvetleaf; [1]): 0
- Velvetleaf plant response rating (velvetleaf; [2]): 0
- Plant response rating, Velvetleaf (velvetleaf; [3]): 0
- Plant response rating, Velvetleaf (velvetleaf; [4]): 0
- Plant response rating, Velvetleaf (velvetleaf; [5]): 0
- Velvetleaf plant response rating (velvetleaf; [6]): 0
- Velvetleaf plant response rating (velvetleaf; [7]): 0
- Redroot pigweed plant response rating (pigweed; [1]): 0
- Redroot pigweed plant response rating (pigweed; [2]): 0
- Plant response rating, Redroot pigweed (pigweed; [3]): 0
- Plant response rating, Redroot pigweed (pigweed; [4]): 0
- Plant response rating, Redroot pigweed (pigweed; [5]): 0
- Redroot pigweed plant response rating (pigweed; [6]): 0
- Redroot pigweed plant response rating (pigweed; [7]): 0
- Redroot pigweed plant response rating (pigweed; [8]): 0
- Bedstraw plant response rating (bedstraw; [1]): 0
- Bedstraw plant response rating (bedstraw; [2]): 0
- Plant response rating, Bedstraw (bedstraw; [3]): 0
- Plant response rating, Bedstraw (bedstraw; [4]): 0
- Plant response rating, Bedstraw (bedstraw; [5]): 0
- Bedstraw plant response rating (bedstraw; [6]): 0
- Bedstraw plant response rating (bedstraw; [7]): 0
- Bedstraw plant response rating (bedstraw; [8]): 0
- Rice plant response rating (rice; [1]): 0
- Rice plant response rating (rice; [9]): 0
- Rice plant response rating (rice; [10]): 0
- Rice plant response rating (rice; [11]): 0
- Crabgrass plant response rating (crabgrass; [1]): 0
- Crabgrass plant response rating (crabgrass; [2]): 0
- Plant response rating, Crabgrass (crabgrass; [3]): 0
- Plant response rating, Crabgrass (crabgrass; [4]): 0
- Plant response rating, Crabgrass (crabgrass; [5]): 0
- Crabgrass plant response rating (crabgrass; [6]): 2
- Crabgrass plant response rating (crabgrass; [7]): 0
- Crabgrass plant response rating (crabgrass; [8]): 0
- Wild oats plant response rating (wild oat; [1]): 0
- Wild oats plant response rating (wild oat; [2]): 0
- Plant response rating, Wild oats (wild oat; [4]): 0
- Plant response rating, Wild oats (wild oat; [5]): 0
- Wild oats plant response rating (wild oat; [6]): 0
- Wild oats plant response rating (wild oat; [7]): 0
